Assay results taken from patent publication US20230066011A1, “PYRROLOPYRIMIDINE DERIVATIVE, AND PHARMACEUTICAL COMPOSITION FOR PREVENTING OR TREATING PROTEIN KINASE-RELATED DISEASE COMPRISING SAME AS ACTIVE INGREDIENT” (VORONOI CO., LTD., priority 2019, published 2023).

Legend:
human GST-CLK1 = molecular target: T1, human GST-CLK1 (Homo sapiens, UniProt P49759); test: GST-CLK1 enzyme inhibition, ADP-Glo kinase assay; format: biochemical; conditions: ATP 10 μM, GST-CLK1 129-end
T1 construct: purified human GST-CLK1 (129-end, SignalChem) enzyme; purchased SignalChem
T1 sequence (P49759 129-484 limits assumed): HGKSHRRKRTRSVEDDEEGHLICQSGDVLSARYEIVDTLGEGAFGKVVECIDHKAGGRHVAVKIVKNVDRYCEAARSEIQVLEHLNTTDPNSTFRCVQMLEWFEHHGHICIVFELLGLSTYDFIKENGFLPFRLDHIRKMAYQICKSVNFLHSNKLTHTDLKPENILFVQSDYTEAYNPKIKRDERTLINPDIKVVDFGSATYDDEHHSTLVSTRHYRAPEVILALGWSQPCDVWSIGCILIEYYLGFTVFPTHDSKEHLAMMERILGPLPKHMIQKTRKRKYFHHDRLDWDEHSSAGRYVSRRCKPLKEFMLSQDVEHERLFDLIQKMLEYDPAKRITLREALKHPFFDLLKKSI
Protocol: (§1) To evaluate an inhibitory activity of the compound according to the present invention against LRRK2, LRRK2 (G2019S), DYRK1, CLK1, and TTK kinases, experiments were performed as follows.
(§2) Each of the Example compounds was reacted with a purified human GST-CLK1 (129-end, SignalChem) enzyme to evaluate an ability to inhibit an enzyme using a method as described below. A composition of 40 mM Tris-HCl (pH 7.4), 20 mM MgCl2, 0.5 mg/mL BSA, and 50 μM DTT was used as a reaction buffer, and all reactions of test substances were performed in the reaction buffer. In the test, purified ATP (10 μM) and a specific substrate solution were reacted with a human GST-CLK1 (129-end, 3 ng) enzyme at 25° C. for an hour, and the enzyme activities were then determined using an in vitro ADP-Glo™ kinase assay (Promega). An enzyme-activity reaction solution, an ADP-Glo reaction solution, and an enzyme-ability detection solution were reacted at a ratio of 2:2:1 to measure a degree of inhibition of the enzyme activity with luminescence. The degree of inhibition of the enzyme activity according to the treatment concentration of each of the compounds was calculated based on the fluorescence of the enzyme activity of the solvent control which was not treated with the compound. In this case, the concentration of each of the compounds inhibiting 50% of the enzyme activity was determined to be an IC50 (nM) value. The IC50 (nM) value of each of the compounds was determined from 3 sets of data, and calculated using Prism (Version 5.01; GraphPad) software.

human GST-DYRK1A = molecular target: T2, human GST-DYRK1A (Homo sapiens, UniProt Q13627); test: GST-DYRK1A enzyme inhibition, ADP-Glo kinase assay; format: biochemical; conditions: ATP 10 μM, GST-DYRK1A full length, read-out: DYRK1 IC50
T2 construct: purified human GST-DYRK1A (full length, Thermo Scientifics) enzyme; purchased Thermo Scientifics
Protocol: as §1
as §2, with “GST-DYRK1A (full length, Thermo Scientifics)” for “GST-CLK1 (129-end, SignalChem)”, “GST-DYRK1A (full length, 10” for “GST-CLK1 (129-end, 3”, “value, and the” for “value. The”

Compound | IC50 (human GST-CLK1) [nM] | IC50 (human GST-DYRK1A) [nM]
O=C(c1ccc(Nc2nc(N[C@@H]3CCOC3)c3cc[nH]c3n2)c2c1OCCO2)N1CCOCC1 [Example 50, (R)-morpholino(8-((4-((tetrahydrofuran-3-yl)amino)-7H-pyrrolo[2,3-d]pyrimidin-2-yl)amino)-2,3-dihydrobenzo[b][1,4]dioxin-5-yl)methanone] | 301 to 1000 | 301 to 1000
O=C(c1ccc(Nc2nc(N[C@H]3CCOC3)c3cc[nH]c3n2)c2c1OCCO2)N1CCOCC1 [Example 51, (S)-morpholino(8-((4-((tetrahydrofuran-3-yl)amino)-7H-pyrrolo[2,3-d]pyrimidin-2-yl)amino)-2,3-dihydrobenzo[b][1,4]dioxin-5-yl)methanone] | 301 to 1000 | 301 to 1000
COc1cc(P(C)(C)=O)ccc1Nc1nc(NC2CC2)c2c(C#N)c[nH]c2n1 [Example 116, 4-(cyclopropylamino)-2-((4-(dimethylphosphoryl)-2-methoxyphenyl)amino)-7H-pyrrolo[2,3-d]pyrimidine-5-carbonitrile] | < 100 | 301 to 1000
N#Cc1c[nH]c2nc(Nc3ccc(C(=O)N4CCOCC4)c4c3OCCO4)nc(N[C@@H]3CCOC3)c12 [Example 127, (R)-2-((8-(morpholine-4-carbonyl)-2,3-dihydrobenzo[b][1,4]dioxin-5-yl)amino)-4-((tetrahydrofuran-3-yl)amino)-7H-pyrrolo[2,3-d]pyrimidine-5-carbonitrile] | < 100 | 301 to 1000
N#Cc1c[nH]c2nc(Nc3ccc(C(=O)N4CCOCC4)c4c3OCCO4)nc(N[C@H]3CCOC3)c12 [Example 128, (S)-2-((8-(morpholine-4-carbonyl)-2,3-dihydrobenzo[b][1,4]dioxin-5-yl)amino)-4-((tetrahydrofuran-3-yl)amino)-7H-pyrrolo[2,3-d]pyrimidine-5-carbonitrile] | 101 to 300 | 301 to 1000
N#Cc1c[nH]c2nc(Nc3ccc(C(=O)N4CCOCC4)c4c3OCCO4)nc(NC3CCOCC3)c12 [Example 129, 2-((8-(morpholine-4-carbonyl)-2,3-dihydrobenzo[b][1,4]dioxin-5-yl)amino)-4-((tetrahydro-2H-pyran-4-yl)amino)-7H-pyrrolo[2,3-d]pyrimidine-5-carbonitrile] | 301 to 1000 | 301 to 1000
CC(C)CNc1nc(Nc2ccc(C(=O)N3CCC(N4CCOCC4)CC3)c3c2OCCO3)nc2[nH]cc(C#N)c12 [Example 139, 4-(isobutylamino)-2-((8-(4-morpholinopiperidine-1-carbonyl)-2,3-dihydrobenzo[b][1,4]dioxin-5-yl)amino)-7H-pyrrolo[2,3-d]pyrimidine-5-carbonitrile] | < 100 | 301 to 1000
N#Cc1c[nH]c2nc(Nc3ccc(C(=O)N4CCC(N5CCOCC5)CC4)c4c3OCCO4)nc(NC3CCCCC3)c12 [Example 142, 4-(cyclohexylamino)-2-((8-(4-morpholinopiperidine-1-carbonyl)-2,3-dihydrobenzo[b][1,4]dioxin-5-yl)amino)-7H-pyrrolo[2,3-d]pyrimidine-5-carbonitrile] | < 100 | 301 to 1000
CNc1nc(Nc2ccc(P3(=O)CCN(C4COC4)CC3)cc2OC)nc2[nH]cc(C#N)c12 [Example 154, 2-((2-methoxy-4-(1-(oxetan-3-yl)-4-oxido-1,4-azaphosphinan-4-yl)phenyl)amino)-4-(methylamino)-7H-pyrrolo[2,3-d]pyrimidine-5-carbonitrile] | 301 to 1000 | 301 to 1000
O=C(c1ccc(Nc2nc(NCC3CCC3)c3c(C(F)(F)F)c[nH]c3n2)c2c1OCCO2)N1CCOCC1 [Example 193, (8-((4-((cyclobutylmethyl)amino)-5-(trifluoromethyl)-7H-pyrrolo[2,3-d]pyrimidin-2-yl)amino)-2,3-dihydrobenzo[b][1,4]dioxin-5-yl)(morpholino)methanone] | 301 to 1000 | 301 to 1000
COc1cc(P(C)(C)=O)ccc1Nc1nc(NC2CCCCC2)c2c(C(F)(F)F)c[nH]c2n1 [Example 196, (4-((4-(cyclohexylamino)-5-(trifluoromethyl)-7H-pyrrolo[2,3-d]pyrimidin-2-yl)amino)-3-methoxyphenyl)dimethylphosphine oxide] | 301 to 1000 | 101 to 300

The next lines start with the values.

IC50 (human GST-CLK1) [nM] | IC50 (human GST-DYRK1A) [nM] | Compound
301 to 1000 | 301 to 1000 | CC[C@@H](C)Nc1nc(Nc2ccc(S(=O)(=O)N3CCC(N4CCOCC4)CC3)cc2OC)nc2[nH]ccc12 [Example 15, (R)-N^4-(sec-butyl)-N^2-(2-methoxy-4-((4-morpholinopiperidin-1-yl)sulfonyl)phenyl)-7H-pyrrolo[2,3-d]pyrimidine-2,4-diamine]
301 to 1000 | 301 to 1000 | CC[C@@H](C)Nc1nc(Nc2ccc(S(C)(=O)=O)cc2OC)nc2[nH]ccc12 [Example 16, (R)-N^4-(sec-butyl)-N^2-(2-methoxy-4-(4-methylsulfonyl)phenyl)-7H-pyrrolo[2,3-d]pyrimidine-2,4-diamine]
301 to 1000 | 301 to 1000 | CC[C@H](C)Nc1nc(Nc2ccc(S(=O)(=O)N3CCC(N4CCOCC4)CC3)cc2OC)nc2[nH]ccc12 [Example 17, (S)-N^4-(sec-butyl)-N^2-(2-methoxy-4-((4-morpholinopiperidin-1-yl)sulfonyl)phenyl)-7H-pyrrolo[2,3-d]pyrimidine-2,4-diamine]
301 to 1000 | 301 to 1000 | CC[C@H](C)Nc1nc(Nc2ccc(S(C)(=O)=O)cc2OC)nc2[nH]ccc12 [Example 18, (S)-N^4-(sec-butyl)-N^2-(2-methoxy-4-(4-methylsulfonyl)phenyl)-7H-pyrrolo[2,3-d]pyrimidine-2,4-diamine]
301 to 1000 | 301 to 1000 | COc1cc(S(C)(=O)=O)ccc1Nc1nc(N[C@@H]2CCOC2)c2cc[nH]c2n1 [Example 28, (R)-N^2-(2-methoxy-4-(methylsulfonyl)phenyl)-N^4-(tetrahydrofuran-3-yl)-7H-pyrrolo[2,3-d]pyrimidine-2,4-diamine]
301 to 1000 | 301 to 1000 | COc1cc(S(=O)(=O)N2CCC(N3CCOCC3)CC2)ccc1Nc1nc(N[C@H]2CCOC2)c2cc[nH]c2n1 [Example 29, (S)-N^2-(2-methoxy-4-((4-morpholinopiperidin-1-yl)sulfonyl)phenyl)-N^4-(tetrahydrofuran-3-yl)-7H-pyrrolo[2,3-d]pyrimidine-2,4-diamine]
301 to 1000 | 301 to 1000 | CC[C@H](C)Nc1nc(Nc2ccc(S(C)(=O)=O)cc2OC)nc2[nH]cc(C#N)c12 [Example 102, (S)-4-(sec-butylamino)-2-((2-methoxy-4-(methylsulfonyl)phenyl)amino)-7H-pyrrolo[2,3-d]pyrimidine-5-carbonitrile]
< 100 | 301 to 1000 | COc1cc(S(C)(=O)=O)ccc1Nc1nc(N[C@H]2CCOC2)c2c(C#N)c[nH]c2n1 [Example 108, (S)-2-((2-methoxy-4-(methylsulfonyl)phenyl)amino)-4-((tetrahydrofuran-3-yl)amino)-7H-pyrrolo[2,3-d]pyrimidine-5-carbonitrile]
301 to 1000 | 301 to 1000 | COc1cc(P(C)(C)=O)ccc1Nc1nc(NC(C)C)c2c(C#N)c[nH]c2n1 [Example 114, 2-((4-(dimethylphosphoryl)-2-methoxyphenyl)amino)-4-(isopropylamino)-7H-pyrrolo[2,3-d]pyrimidine-5-carbonitrile]
< 100 | 301 to 1000 | COCCNc1nc(Nc2ccc(P(C)(C)=O)cc2OC)nc2[nH]cc(C#N)c12 [Example 115, 2-((4-(dimethylphosphoryl)-2-methoxyphenyl)amino)-4-((2-methoxyethyl)amino)-7H-pyrrolo[2,3-d]pyrimidine-5-carbonitrile]
301 to 1000 | 301 to 1000 | COc1cc(S(C)(=O)=O)ccc1Nc1nc(NCC(C)C)c2c(C(F)(F)F)c[nH]c2n1 [Example 180, N^4-isobutyl-N^2-(2-methoxy-4-(methylsulfonyl)phenyl)-5-(trifluoromethyl)-7H-pyrrolo[2,3-d]pyrimidine-2,4-diamine]
